Reference: ChEMBL document CHEMBL5465560, “Selectivity Literature for EUbOPEN Chemogenomic Library” (2024)

Assays:
[1] = biological target: Serine/threonine-protein kinase SBK1 (Homo sapiens) (UniProt Q52WX2); experiment: Selectivity interaction (KinomeScan (DiscoverX)) EUB0000655a SBK1; conditions: at 10 µM
[2] = biological target: Platelet-derived growth factor receptor alpha (Homo sapiens, UniProt P16234); experiment: Selectivity interaction (KinomeScan (DiscoverX)) EUB0000618a PDGFRA; conditions: at 10 µM
Chain of Platelet-derived growth factor receptor alpha (P16234 whole entry): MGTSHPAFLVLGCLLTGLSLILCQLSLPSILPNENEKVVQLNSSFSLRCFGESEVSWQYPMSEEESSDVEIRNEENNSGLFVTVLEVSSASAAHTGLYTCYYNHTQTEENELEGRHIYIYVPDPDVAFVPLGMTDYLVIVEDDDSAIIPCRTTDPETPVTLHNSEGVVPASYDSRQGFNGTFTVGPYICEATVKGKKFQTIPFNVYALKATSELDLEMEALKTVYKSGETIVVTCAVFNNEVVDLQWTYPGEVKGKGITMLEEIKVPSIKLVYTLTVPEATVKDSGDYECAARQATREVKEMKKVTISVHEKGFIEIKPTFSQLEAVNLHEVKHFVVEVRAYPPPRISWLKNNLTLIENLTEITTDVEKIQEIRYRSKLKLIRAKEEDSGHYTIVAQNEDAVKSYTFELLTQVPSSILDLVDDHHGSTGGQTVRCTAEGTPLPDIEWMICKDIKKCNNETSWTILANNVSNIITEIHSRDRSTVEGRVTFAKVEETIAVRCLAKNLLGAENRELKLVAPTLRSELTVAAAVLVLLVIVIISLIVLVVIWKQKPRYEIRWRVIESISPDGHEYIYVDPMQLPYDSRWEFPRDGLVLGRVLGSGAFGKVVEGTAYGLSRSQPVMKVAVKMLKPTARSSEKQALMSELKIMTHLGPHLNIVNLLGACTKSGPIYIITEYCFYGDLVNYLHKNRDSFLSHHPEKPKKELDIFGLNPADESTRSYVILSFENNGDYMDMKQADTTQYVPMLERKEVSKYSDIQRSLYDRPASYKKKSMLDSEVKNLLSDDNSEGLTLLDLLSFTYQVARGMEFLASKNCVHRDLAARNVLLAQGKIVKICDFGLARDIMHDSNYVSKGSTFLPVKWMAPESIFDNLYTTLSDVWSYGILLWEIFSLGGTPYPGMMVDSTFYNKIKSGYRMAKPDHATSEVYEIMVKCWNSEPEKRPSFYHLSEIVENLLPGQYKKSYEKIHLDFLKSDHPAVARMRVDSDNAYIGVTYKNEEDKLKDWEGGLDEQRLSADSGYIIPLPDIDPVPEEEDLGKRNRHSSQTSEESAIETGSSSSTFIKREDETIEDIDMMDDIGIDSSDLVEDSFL

[3] = biological target: Tyrosine-protein kinase JAK2 (Homo sapiens, UniProt O60674); experiment: Selectivity interaction (SelectScreen Kinase Profiling (Thermo Fisher Scientific)) EUB0001558a JAK2; conditions: at 1 µM
[4] = biological target: T1, Mitogen-activated protein kinase kinase kinase 2 (Homo sapiens) (UniProt Q9Y2U5); experiment: Selectivity interaction (KinomeScan (DiscoverX)) EUB0000045b MAP3K2
T1 sequence (whole entry): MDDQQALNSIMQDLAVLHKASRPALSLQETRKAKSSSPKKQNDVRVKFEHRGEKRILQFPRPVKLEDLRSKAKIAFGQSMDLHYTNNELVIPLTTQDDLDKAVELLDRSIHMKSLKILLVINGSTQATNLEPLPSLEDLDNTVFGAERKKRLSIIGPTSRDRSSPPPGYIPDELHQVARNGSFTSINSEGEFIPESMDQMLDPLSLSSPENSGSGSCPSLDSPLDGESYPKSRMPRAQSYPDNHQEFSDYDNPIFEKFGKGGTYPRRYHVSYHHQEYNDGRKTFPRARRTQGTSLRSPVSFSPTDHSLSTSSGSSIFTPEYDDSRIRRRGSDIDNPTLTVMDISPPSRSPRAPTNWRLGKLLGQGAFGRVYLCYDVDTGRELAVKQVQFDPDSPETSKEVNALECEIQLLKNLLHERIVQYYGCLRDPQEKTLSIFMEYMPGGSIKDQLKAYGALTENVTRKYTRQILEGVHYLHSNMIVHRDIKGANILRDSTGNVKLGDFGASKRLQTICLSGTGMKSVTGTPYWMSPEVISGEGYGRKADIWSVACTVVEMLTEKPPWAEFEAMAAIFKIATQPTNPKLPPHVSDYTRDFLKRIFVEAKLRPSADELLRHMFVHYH

[5] = biological target: Serine/threonine-protein kinase 26 (Homo sapiens, UniProt Q9P289); conditions: at 10 µM
Chain of Serine/threonine-protein kinase 26 (Q9P289 2-416 limits assumed): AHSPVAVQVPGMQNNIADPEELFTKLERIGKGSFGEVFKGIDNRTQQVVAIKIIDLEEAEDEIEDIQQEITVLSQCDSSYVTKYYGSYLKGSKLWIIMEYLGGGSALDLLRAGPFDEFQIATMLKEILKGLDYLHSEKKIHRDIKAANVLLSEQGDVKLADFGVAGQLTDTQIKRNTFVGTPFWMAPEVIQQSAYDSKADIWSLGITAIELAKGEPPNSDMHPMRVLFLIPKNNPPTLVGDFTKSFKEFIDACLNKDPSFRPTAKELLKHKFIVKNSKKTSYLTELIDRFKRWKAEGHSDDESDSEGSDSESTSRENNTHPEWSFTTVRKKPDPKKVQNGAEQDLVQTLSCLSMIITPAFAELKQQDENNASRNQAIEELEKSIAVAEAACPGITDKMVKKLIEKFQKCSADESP

[6] = biological target: N6-adenosine-methyltransferase catalytic subunit (Homo sapiens) (UniProt Q86U44); experiment: Selectivity interaction (Transferase panel (protein, RNA, and DNA methyltransferases. and EP300 (acetyltransferase))) EUB0000270b METTL3
Chain of N6-adenosine-methyltransferase catalytic subunit (Homo sapiens) (Q86U44 whole entry): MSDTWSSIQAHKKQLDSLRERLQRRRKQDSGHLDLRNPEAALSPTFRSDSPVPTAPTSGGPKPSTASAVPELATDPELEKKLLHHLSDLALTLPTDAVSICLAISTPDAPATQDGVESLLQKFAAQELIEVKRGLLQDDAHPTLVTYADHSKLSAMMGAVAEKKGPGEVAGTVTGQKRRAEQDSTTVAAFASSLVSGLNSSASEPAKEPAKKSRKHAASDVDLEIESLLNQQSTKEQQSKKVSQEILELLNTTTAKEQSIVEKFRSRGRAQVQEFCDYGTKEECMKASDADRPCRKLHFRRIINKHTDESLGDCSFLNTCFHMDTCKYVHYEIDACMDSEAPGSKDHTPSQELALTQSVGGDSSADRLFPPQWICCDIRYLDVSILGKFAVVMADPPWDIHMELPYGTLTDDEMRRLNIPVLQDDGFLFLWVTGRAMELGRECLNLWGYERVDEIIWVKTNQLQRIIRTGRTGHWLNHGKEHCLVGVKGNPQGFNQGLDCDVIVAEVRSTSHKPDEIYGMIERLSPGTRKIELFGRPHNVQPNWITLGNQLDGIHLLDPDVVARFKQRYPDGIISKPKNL

[7] = biological target: Serine/threonine-protein kinase PLK2 (Homo sapiens, UniProt Q9NYY3); experiment: Selectivity interaction (ProQinase) EUB0000171b PLK2
Chain of Serine/threonine-protein kinase PLK2 (Q9NYY3 whole entry, looked up, the tested form may be a part): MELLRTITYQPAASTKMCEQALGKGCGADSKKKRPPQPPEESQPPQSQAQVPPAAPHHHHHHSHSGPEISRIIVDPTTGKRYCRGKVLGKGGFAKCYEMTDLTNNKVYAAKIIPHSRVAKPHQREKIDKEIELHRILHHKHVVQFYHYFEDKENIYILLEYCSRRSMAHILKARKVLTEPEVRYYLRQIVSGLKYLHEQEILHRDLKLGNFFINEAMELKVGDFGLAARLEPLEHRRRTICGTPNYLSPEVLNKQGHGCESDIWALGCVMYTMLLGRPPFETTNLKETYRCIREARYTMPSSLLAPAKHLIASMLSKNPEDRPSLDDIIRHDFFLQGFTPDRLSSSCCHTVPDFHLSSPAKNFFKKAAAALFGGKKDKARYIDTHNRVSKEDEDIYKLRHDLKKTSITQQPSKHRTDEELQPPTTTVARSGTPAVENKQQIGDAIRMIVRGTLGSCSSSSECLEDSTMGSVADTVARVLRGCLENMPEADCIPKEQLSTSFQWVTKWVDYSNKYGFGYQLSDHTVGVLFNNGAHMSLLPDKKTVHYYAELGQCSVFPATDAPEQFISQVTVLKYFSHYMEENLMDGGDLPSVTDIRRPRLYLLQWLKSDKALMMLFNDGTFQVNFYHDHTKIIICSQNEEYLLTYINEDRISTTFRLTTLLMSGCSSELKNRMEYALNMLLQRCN

[8] = biological target: Phosphatidylinositol 4-phosphate 3-kinase C2 domain-containing subunit beta (Homo sapiens) (UniProt O00750); experiment: Selectivity interaction (Adapta Assay) EUB0001632a PIK3C2B; conditions: at 10 µM
Chain of Phosphatidylinositol 4-phosphate 3-kinase C2 domain-containing subunit beta (Homo sapiens) (O00750 whole entry, the tested form may be a part): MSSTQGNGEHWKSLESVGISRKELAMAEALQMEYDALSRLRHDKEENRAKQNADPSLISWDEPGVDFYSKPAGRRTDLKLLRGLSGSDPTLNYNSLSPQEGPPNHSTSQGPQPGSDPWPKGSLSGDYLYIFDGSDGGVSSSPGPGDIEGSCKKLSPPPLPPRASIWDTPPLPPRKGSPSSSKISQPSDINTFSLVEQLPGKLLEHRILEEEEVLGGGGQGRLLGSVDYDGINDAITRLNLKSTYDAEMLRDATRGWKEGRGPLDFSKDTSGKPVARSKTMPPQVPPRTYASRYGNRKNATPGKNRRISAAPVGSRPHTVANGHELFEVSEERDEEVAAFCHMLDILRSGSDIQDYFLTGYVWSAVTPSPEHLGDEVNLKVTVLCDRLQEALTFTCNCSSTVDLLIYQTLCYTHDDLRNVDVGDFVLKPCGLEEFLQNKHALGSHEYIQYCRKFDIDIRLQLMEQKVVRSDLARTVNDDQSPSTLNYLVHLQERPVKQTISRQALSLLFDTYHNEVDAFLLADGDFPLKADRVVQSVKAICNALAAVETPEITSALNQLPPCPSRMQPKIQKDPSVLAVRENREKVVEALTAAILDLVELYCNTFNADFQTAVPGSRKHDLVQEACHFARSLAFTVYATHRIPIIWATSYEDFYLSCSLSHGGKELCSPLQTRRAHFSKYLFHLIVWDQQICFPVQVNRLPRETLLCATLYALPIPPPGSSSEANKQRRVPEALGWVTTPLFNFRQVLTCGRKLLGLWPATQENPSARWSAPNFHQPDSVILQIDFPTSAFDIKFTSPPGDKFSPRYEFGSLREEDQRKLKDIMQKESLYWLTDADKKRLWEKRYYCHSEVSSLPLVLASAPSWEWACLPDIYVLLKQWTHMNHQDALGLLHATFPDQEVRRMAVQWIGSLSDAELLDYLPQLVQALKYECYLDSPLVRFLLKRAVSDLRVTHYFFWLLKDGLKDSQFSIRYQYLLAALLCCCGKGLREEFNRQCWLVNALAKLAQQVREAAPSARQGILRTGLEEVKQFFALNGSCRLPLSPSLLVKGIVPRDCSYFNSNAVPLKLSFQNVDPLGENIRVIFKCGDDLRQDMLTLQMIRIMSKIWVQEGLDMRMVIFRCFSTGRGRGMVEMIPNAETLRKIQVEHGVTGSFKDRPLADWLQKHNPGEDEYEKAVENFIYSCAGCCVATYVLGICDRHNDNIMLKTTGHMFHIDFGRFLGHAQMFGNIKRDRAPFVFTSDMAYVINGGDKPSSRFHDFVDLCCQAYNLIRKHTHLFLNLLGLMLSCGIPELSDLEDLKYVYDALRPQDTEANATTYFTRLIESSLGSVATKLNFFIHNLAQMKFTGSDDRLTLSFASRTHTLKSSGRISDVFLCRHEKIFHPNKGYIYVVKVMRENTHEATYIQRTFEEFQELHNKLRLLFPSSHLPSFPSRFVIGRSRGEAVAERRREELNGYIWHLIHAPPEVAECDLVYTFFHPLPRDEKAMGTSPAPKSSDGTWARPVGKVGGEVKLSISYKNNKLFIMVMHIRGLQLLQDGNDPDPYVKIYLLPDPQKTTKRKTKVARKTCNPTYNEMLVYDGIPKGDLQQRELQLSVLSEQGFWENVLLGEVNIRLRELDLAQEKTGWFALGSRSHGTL

[9] = biological target: T2, Tyrosine-protein kinase JAK3 (Homo sapiens) (UniProt P52333); experiment: Selectivity interaction (KinomeScan (DiscoverX)) EUB0000695a JAK3; conditions: at 100 nM
T2 sequence (whole entry): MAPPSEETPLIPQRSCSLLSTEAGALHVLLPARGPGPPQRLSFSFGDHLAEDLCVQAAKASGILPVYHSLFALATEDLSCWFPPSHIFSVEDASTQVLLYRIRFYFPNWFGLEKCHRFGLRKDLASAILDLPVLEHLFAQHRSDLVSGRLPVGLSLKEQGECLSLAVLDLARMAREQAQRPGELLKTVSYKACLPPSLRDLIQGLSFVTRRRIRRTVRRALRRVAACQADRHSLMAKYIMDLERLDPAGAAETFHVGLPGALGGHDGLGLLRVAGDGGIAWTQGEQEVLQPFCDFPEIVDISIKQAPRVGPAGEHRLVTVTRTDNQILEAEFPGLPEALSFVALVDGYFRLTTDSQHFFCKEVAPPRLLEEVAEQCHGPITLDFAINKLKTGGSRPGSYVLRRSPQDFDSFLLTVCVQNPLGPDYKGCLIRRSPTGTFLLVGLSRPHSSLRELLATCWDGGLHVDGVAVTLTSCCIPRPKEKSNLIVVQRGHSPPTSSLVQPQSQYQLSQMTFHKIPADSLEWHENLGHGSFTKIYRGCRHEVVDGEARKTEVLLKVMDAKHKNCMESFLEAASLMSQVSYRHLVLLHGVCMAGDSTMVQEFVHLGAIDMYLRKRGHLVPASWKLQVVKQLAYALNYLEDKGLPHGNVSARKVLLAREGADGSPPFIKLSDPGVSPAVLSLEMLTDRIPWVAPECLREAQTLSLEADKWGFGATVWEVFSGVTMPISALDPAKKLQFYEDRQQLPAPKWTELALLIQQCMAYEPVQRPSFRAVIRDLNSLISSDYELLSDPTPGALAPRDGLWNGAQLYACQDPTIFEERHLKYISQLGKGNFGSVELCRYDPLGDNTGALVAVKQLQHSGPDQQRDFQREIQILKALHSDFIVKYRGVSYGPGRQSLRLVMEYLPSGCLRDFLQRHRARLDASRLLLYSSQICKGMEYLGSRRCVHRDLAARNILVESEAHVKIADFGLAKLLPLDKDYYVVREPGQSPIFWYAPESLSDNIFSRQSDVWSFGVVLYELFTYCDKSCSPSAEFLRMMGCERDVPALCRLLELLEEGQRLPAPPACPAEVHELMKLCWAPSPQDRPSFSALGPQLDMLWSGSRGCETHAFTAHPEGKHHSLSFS

Chain of Serine/threonine-protein kinase SBK1 (Homo sapiens) (Q52WX2 whole entry): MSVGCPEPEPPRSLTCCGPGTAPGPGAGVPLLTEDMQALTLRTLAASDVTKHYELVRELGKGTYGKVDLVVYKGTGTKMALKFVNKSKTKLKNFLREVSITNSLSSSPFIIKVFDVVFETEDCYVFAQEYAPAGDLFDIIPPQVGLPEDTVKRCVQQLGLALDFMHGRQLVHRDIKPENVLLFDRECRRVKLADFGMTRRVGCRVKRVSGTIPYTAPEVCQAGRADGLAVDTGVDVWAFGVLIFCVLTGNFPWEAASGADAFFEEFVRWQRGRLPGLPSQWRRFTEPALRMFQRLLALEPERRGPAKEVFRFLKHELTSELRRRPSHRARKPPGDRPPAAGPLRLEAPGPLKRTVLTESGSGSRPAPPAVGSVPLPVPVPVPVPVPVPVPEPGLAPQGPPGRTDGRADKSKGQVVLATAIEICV

## CN(C)CCOc1ccc(-c2nc(-c3ccncc3)c(-c3ccc4c(c3)CC/C4=N\O)[nH]2)cc1
[1]
  % of control: 83%

## O[C@H]1CC[C@H](Nc2ncc3nc(Nc4c(F)cc(F)cc4F)n([C@H]4CCOC4)c3n2)CC1
[2]
  % of control: 82%

## CC(C)(O)[C@H](F)CN1Cc2cc(NC(=O)c3cnn4cccnc34)c(N3CCOCC3)cc2C1=O
[3]
  % of inhibition: 80.5%

## C=CC(=O)Nc1cc(-n2c(=O)ccc3cnc4ccc(-c5ccc(NS(C)(=O)=O)cc5)cc4c32)ccc1C
[4]; at 1 µM
  % of control: 100%
[4]; at 10 µM
  % of control: 100%

## Cc1cc([C@@H](C)Nc2ccccc2C(=O)O)c2nc(N3CCOCC3)cc(=O)n2c1 [AZD-6482]
[5]
  % of control: 100%

## Cc1cc(CN)cc(C)c1-c1ncn(C)c1-c1cncn1C
[6]; at 1 µM
  % activity: > 90%
[6]; at 10 µM
  % activity: > 80%

## C=CC(=O)Nc1cccc(C(=O)Nc2ccc(Nc3cc(-c4[nH]c(SC)nc4C)ccn3)cc2)c1
[7]; at 1 µM
  % of control: 86%
[7]; at 5 µM
  % of control: 81%

## Cn1cc(-n2cnc3c(NCc4nc5cc(Cl)c(Cl)cc5[nH]4)nc(N4CCOCC4)nc32)cn1
[8]
  % of inhibition: 64.1%

## Cc1cc(F)c(C(=O)Nc2cccc(-c3nncn3C(C)C)n2)cc1-n1cnc(C2CC2)c1
[9]
  % of control: 100%
